According to US20230255953A1, “USE OF ROLUPERIDONE IN PREVENTING RELAPSE IN SCHIZOPHRENIA PATIENTS” (Minerva Neurosciences, Inc., priority 2022, published 2023):

What was measured:
sigma2 = sigma2 (Homo sapiens, UniProt Q5BJF2); conditions: background statement; cited from earlier work
[1] = tested on: patients with negative symptoms of schizophrenia; assay: Study #2 (MIN-101C07) Phase 3: PANSS-derived scores (NSFS, total, subscales, Marder factors); assay type: in vivo, human; set-up: key to Change from Baseline LS Mean: NSFS (ITT) / Change from Baseline LS Mean: NSFS (mITT): NSFS total ranges 7 to 49; higher = more severe; conditions: for Change from Baseline LS Mean: Marder's Anxiety/Depression Factor Score / Change from Baseline LS Mean: Marder's Disorganized Thought Factor Score / Change from Baseline LS Mean: Marder's Positive Symptoms Factor Score / Change from Baseline LS Mean: Marder's Uncontrolled Hostility/Excitement Factor Score / Change from Baseline LS Mean: NSFS (ITT) / Change from Baseline LS Mean: NSFS Emotional Experience Score / Change from Baseline LS Mean: NSFS Emotional Expression Score / Change from Baseline LS Mean: PANSS General Psychopathology Subscale / Change from Baseline LS Mean: PANSS Negative Symptoms Subscale / Change from Baseline LS Mean: PANSS Positive Symptoms Subscale / Change from Baseline LS Mean: PANSS Total Score / Effect Size (Cohen's d) vs Placebo: Marder's Anxiety/Depression Factor Score / Effect Size (Cohen's d) vs Placebo: Marder's Disorganized Thought Factor Score / Effect Size (Cohen's d) vs Placebo: Marder's Positive Symptoms Factor Score / Effect Size (Cohen's d) vs Placebo: Marder's Uncontrolled Hostility/Excitement Factor Score / Effect Size (Cohen's d) vs Placebo: NSFS (ITT) / Effect Size (Cohen's d) vs Placebo: NSFS Emotional Experience Score / Effect Size (Cohen's d) vs Placebo: NSFS Emotional Expression Score / Effect Size (Cohen's d) vs Placebo: PANSS General Psychopathology Subscale / Effect Size (Cohen's d) vs Placebo: PANSS Negative Symptoms Subscale / Effect Size (Cohen's d) vs Placebo: PANSS Positive Symptoms Subscale / Effect Size (Cohen's d) vs Placebo: PANSS Total Score / Effect size, change from Baseline in NSFS to Week 12: ITT; for Effect size, change from Baseline in NSFS to Week 12: 64 mg
From the text: “PANSS”, as used herein, refers to the positive and negative syndrome scale, which is used by physicians and clinicians to measure the severity of the symptoms in a schizophrenia patient. The scale is divided into three parts, a positive scale, which provides a “PANSS positive subscore”, a negative scale, which provides a “PANSS negative subscore”, and general psychopathology scale. The sum of these three parts provides a PANSS total score, which ranges from 30 to 210 (where higher scores indicate more severe symptoms). (Kay, S. R., et al. “The positive and negative syndrome scale (PANSS) for schizophrenia,” Schizophr Bulletin, 13(2), 261-276 (1987)).
As used herein, PANSS Marder's negative symptoms factor score (“NSFS”), refers to selection of seven of the PANSS items used by physicians and clinicians to measure the severity of the negative symptoms in a schizophrenia patient. (See Tables 5A and 5B.) The NSFS total score ranges from 7 to 49. (Marder, S. R. et al. “The effects of risperidone on the five dimensions of schizophrenia derived by factor analysis: combined results of the North American trials,” J Clin Psychiatry. 1997; 58:538-46.)
The PANSS was designed to be used in patients with schizophrenia to measure the overall severity of schizophrenic symptoms. The scale has been validated in different cultures and languages and is reliable and acceptable to regulatory health authorities as a primary scale to determine efficacy of intervention in schizophrenia. The name refers to the 2 types of symptoms in schizophrenia, as defined by the American Psychiatric Association: positive symptoms, which refer to an excess or distortion of normal functions (e.g., hallucinations and delusions), and negative symptoms, which represent a diminution or loss of normal functions.
The patient is rated from 1 to 7 on 30 different symptoms based on the interview as well as reports of family members or primary care hospital workers. The original PANSS included 3 groups of symptoms and subscale scores Positive, Negative, and General Psychopathology. Since the inception of PANSS, investigators have proposed additional grouping (structures) of PANSS such as the Marder structure (Marder, S. R. et al. “Issues and perspectives in designing clinical trials for negative symptoms in schizophrenia: consensus statements,” Schizophrenia Bulletin Open. 2020; 1(1). doi:10.1093/schizbullopen/sgz001) and the White structure (White, L. et al. “Empirical assessment of the factorial structure of clinical symptoms in schizophrenia”. Psychopathology. 1997; 30263-274).
The PANSS was assessed at the time points described in Table 4.
The PANSS-derived endpoints used in these studies and the integrated analyses are described in Table 5A and a summary of the individual PANSS items used by physicians and clinicians to measure the severity of the symptoms in a schizophrenia patient is provided in Table 5B. The scale is divided into three parts, a positive scale, which provides a “PANSS positive subscore”, a negative scale, which provides a “PANSS negative subscore”, and general psychopathology scale. The sum of these three parts provides a PANSS total score, which ranges from 30 to 210 (where higher scores indicate more severe symptoms). (See Kay, S. R., et al. “The positive and negative syndrome scale (PANSS) for schizophrenia,” Schizophr Bulletin, 13(2), 261-276 (1987) and Gopal, S., et al. “Improvement of Negative Symptoms in Schizophrenia with Paliperidone Palmitate 1-Month and 3-Month Long-Acting Injectables: Results from a Phase 3 Non-Inferiority Study” Neuropsychiatric Disease and Treatment, 681-690, DOI: 10.2147/NDT.5226296, both of which are incorporated by reference.)
Study #2 (also referred to as “MIN101C07”) was a Phase 3, randomized, DB, placebo-controlled, parallel-group 12-week study to evaluate the efficacy and safety of Roluperidone in patients ≥18 years to ≤55 years with negative symptoms of schizophrenia, followed by a 40-week OL extension. […]

Sequence of sigma2 (Q5BJF2 whole entry): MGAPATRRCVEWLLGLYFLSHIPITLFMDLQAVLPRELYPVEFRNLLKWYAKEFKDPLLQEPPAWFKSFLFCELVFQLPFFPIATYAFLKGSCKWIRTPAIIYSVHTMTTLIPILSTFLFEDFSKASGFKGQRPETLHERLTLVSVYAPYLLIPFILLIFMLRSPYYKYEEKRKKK

Substance: 1H-Isoindol-1-one,2-[ [1-[2-(4-fluorophenyl)-2-oxoethyl]-4-piperidinyl]methyl]-2,3-dihydro-, hydrochloride, hydrate (1:1:2) [Roluperidone]
- Antagonistic activity (sigma2): antagonistic activities
- Effect Size (Cohen's w) vs Placebo: 20% reduction in NSFS responders ([1]; 32 mg QD, Week 12 DB): 0.05
- Effect Size (Cohen's w) vs Placebo: 30% reduction in NSFS responders ([1]; 32 mg QD, Week 12 DB): 0.04
- Number of Patients with 20% reduction in NSFS at Week 12 ([1]; 32 mg QD, Week 12 DB): 32/116
- Number of Patients with 30% reduction in NSFS at Week 12 ([1]; 32 mg QD, Week 12 DB): 14/116
- Patients with 20% reduction in NSFS at Week 12 (%) ([1]; 32 mg QD, Week 12 DB): (28%)
- Patients with 30% reduction in NSFS at Week 12 (%) ([1]; 32 mg QD, Week 12 DB): (12%)
- Change from Baseline LS Mean: Marder's Anxiety/Depression Factor Score ([1]; 32 mg QD, Week 12 DB): −0.6
- Change from Baseline LS Mean: Marder's Disorganized Thought Factor Score ([1]; 32 mg QD, Week 12 DB): −1.6
- Change from Baseline LS Mean: Marder's Positive Symptoms Factor Score ([1]; 32 mg QD, Week 12 DB): −1.3
- Change from Baseline LS Mean: Marder's Uncontrolled Hostility/Excitement Factor Score ([1]; 32 mg QD, Week 12 DB): 0.3
- Change from Baseline LS Mean: NSFS (ITT) ([1]; 32 mg QD, Week 12 DB): −4.0
- Change from Baseline LS Mean: NSFS Emotional Experience Score ([1]; 32 mg QD, Week 12 DB): −1.5
- Change from Baseline LS Mean: NSFS Emotional Expression Score ([1]; 32 mg QD, Week 12 DB): −2.6
- Change from Baseline LS Mean: PANSS General Psychopathology Subscale ([1]; 32 mg QD, Week 12 DB): −2.8
- Change from Baseline LS Mean: PANSS Negative Symptoms Subscale ([1]; 32 mg QD, Week 12 DB): −4.2
- Change from Baseline LS Mean: PANSS Positive Symptoms Subscale ([1]; 32 mg QD, Week 12 DB): −0.3
- Change from Baseline LS Mean: PANSS Total Score ([1]; 32 mg QD, Week 12 DB): −7.1
- Effect Size (Cohen's d) vs Placebo: Marder's Anxiety/Depression Factor Score ([1]; 32 mg QD, Week 12 DB): 0.05
- Effect Size (Cohen's d) vs Placebo: Marder's Disorganized Thought Factor Score ([1]; 32 mg QD, Week 12 DB): 0.15
- Effect Size (Cohen's d) vs Placebo: Marder's Positive Symptoms Factor Score ([1]; 32 mg QD, Week 12 DB): 0.14
- Effect Size (Cohen's d) vs Placebo: Marder's Uncontrolled Hostility/Excitement Factor Score ([1]; 32 mg QD, Week 12 DB): −0.05
- Effect Size (Cohen's d) vs Placebo: NSFS (ITT) ([1]; 32 mg QD, Week 12 DB): 0.13
- Effect Size (Cohen's d) vs Placebo: NSFS Emotional Experience Score ([1]; 32 mg QD, Week 12 DB): 0.11
- Effect Size (Cohen's d) vs Placebo: NSFS Emotional Expression Score ([1]; 32 mg QD, Week 12 DB): 0.17
- Effect Size (Cohen's d) vs Placebo: PANSS General Psychopathology Subscale ([1]; 32 mg QD, Week 12 DB): 0.22
- Effect Size (Cohen's d) vs Placebo: PANSS Negative Symptoms Subscale ([1]; 32 mg QD, Week 12 DB): 0.10
- Effect Size (Cohen's d) vs Placebo: PANSS Positive Symptoms Subscale ([1]; 32 mg QD, Week 12 DB): 0.04
- Effect Size (Cohen's d) vs Placebo: PANSS Total Score ([1]; 32 mg QD, Week 12 DB): 0.17
- Change from Baseline LS Mean: NSFS (mITT) ([1]; 32 mg QD, Week 12 DB): −4.0
- Effect Size (Cohen's d) vs Placebo: NSFS (mITT) ([1]; 32 mg QD, Week 12 DB): 0.13
- Effect Size (Cohen's w) vs Placebo: 20% reduction in NSFS responders ([1]; 64 mg QD, Week 12 DB): 0.17
- Effect Size (Cohen's w) vs Placebo: 30% reduction in NSFS responders ([1]; 64 mg QD, Week 12 DB): 0.09
- Number of Patients with 20% reduction in NSFS at Week 12 ([1]; 64 mg QD, Week 12 DB): 48/122
- Number of Patients with 30% reduction in NSFS at Week 12 ([1]; 64 mg QD, Week 12 DB): 24/122
- Change from Baseline LS Mean: Marder's Anxiety/Depression Factor Score ([1]; 64 mg QD, Week 12 DB): −0.7
- Change from Baseline LS Mean: Marder's Disorganized Thought Factor Score ([1]; 64 mg QD, Week 12 DB): −1.4
- Change from Baseline LS Mean: Marder's Positive Symptoms Factor Score ([1]; 64 mg QD, Week 12 DB): −1.6
- Change from Baseline LS Mean: Marder's Uncontrolled Hostility/Excitement Factor Score ([1]; 64 mg QD, Week 12 DB): 0.5
- Change from Baseline LS Mean: NSFS (ITT) ([1]; 64 mg QD, Week 12 DB): −4.3
- Change from Baseline LS Mean: NSFS Emotional Experience Score ([1]; 64 mg QD, Week 12 DB): −1.8
- Change from Baseline LS Mean: NSFS Emotional Expression Score ([1]; 64 mg QD, Week 12 DB): −2.6
- Change from Baseline LS Mean: PANSS General Psychopathology Subscale ([1]; 64 mg QD, Week 12 DB): −2.3
- Change from Baseline LS Mean: PANSS Negative Symptoms Subscale ([1]; 64 mg QD, Week 12 DB): −4.7
- Change from Baseline LS Mean: PANSS Positive Symptoms Subscale ([1]; 64 mg QD, Week 12 DB): −0.4
- Change from Baseline LS Mean: PANSS Total Score ([1]; 64 mg QD, Week 12 DB): −7.4
- Effect Size (Cohen's d) vs Placebo: Marder's Anxiety/Depression Factor Score ([1]; 64 mg QD, Week 12 DB): 0.09
- Effect Size (Cohen's d) vs Placebo: Marder's Disorganized Thought Factor Score ([1]; 64 mg QD, Week 12 DB): 0.07
- Effect Size (Cohen's d) vs Placebo: Marder's Positive Symptoms Factor Score ([1]; 64 mg QD, Week 12 DB): 0.24
- Effect Size (Cohen's d) vs Placebo: Marder's Uncontrolled Hostility/Excitement Factor Score ([1]; 64 mg QD, Week 12 DB): −0.15
- Effect Size (Cohen's d) vs Placebo: NSFS (ITT) ([1]; 64 mg QD, Week 12 DB): 0.21
- Effect Size (Cohen's d) vs Placebo: NSFS Emotional Experience Score ([1]; 64 mg QD, Week 12 DB): 0.28
- Effect Size (Cohen's d) vs Placebo: NSFS Emotional Expression Score ([1]; 64 mg QD, Week 12 DB): 0.17
- Effect Size (Cohen's d) vs Placebo: PANSS General Psychopathology Subscale ([1]; 64 mg QD, Week 12 DB): 0.12
- Effect Size (Cohen's d) vs Placebo: PANSS Negative Symptoms Subscale ([1]; 64 mg QD, Week 12 DB): 0.23
- Effect Size (Cohen's d) vs Placebo: PANSS Positive Symptoms Subscale ([1]; 64 mg QD, Week 12 DB): 0.07
- Effect Size (Cohen's d) vs Placebo: PANSS Total Score ([1]; 64 mg QD, Week 12 DB): 0.20
- Change from Baseline LS Mean: NSFS (mITT) ([1]; 64 mg QD, Week 12 DB): −4.5
- Effect Size (Cohen's d) vs Placebo: NSFS (mITT) ([1]; 64 mg QD, Week 12 DB): 0.26
- Effect size, change from Baseline in NSFS to Week 12 ([1]; US sites subgroup): 0.32
- Effect size, change from Baseline in NSFS to Week 12 ([1]; non-US sites subgroup): 0.20
- NSFS score, course in OL period ([1]; all treatment groups, OL period to Week 52): continued to improve
